In ChEMBL document CHEMBL4342421, “Current scenario of tetrazole hybrids for antibacterial activity” (Eur J Med Chem, 2019):
In brackets after ≈: the same amount, converted by molar mass. Values belong to the molecule of their own block, whether it stands above or below them.

Key:
[1] = test system: Salmonella typhimurium; assay: Antimicrobial activity against Salmonella typhimurium; assay type: functional, Salmonella enterica subsp. enterica serovar Typhimurium; details: Salmonella enterica
[2] = test system: Nakaseomyces glabratus; assay: Antifungal activity against Candida glabrata; assay type: functional
[3] = test system: Proteus vulgaris; assay: Antimicrobial activity against Proteus vulgaris; assay type: functional
[4] = test system: Bacillus subtilis; assay: Antimicrobial activity against Bacillus subtilis; assay type: functional
[5] = test system: Staphylococcus aureus; assay: Antimicrobial activity against Staphylococcus aureus; assay type: functional
[6] = test system: Listeria monocytogenes; assay: Antimicrobial activity against Listeria monocytogenes; assay type: functional
[7] = test system: Escherichia coli; assay: Antimicrobial activity against Escherichia coli; assay type: functional
[8] = test system: Enterococcus faecalis; assay: Antimicrobial activity against Enterococcus faecalis; assay type: functional
[9] = test system: Candida albicans; assay: Antifungal activity against Candida albicans; assay type: functional
[10] = test system: Pseudomonas aeruginosa; assay: Antimicrobial activity against Pseudomonas aeruginosa; assay type: functional
[11] = test system: Candida tropicalis; assay: Antifungal activity against Candida tropicalis; assay type: functional
[12] = test system: Klebsiella pneumoniae; assay: Antimicrobial activity against Klebsiella pneumoniae; assay type: functional
[13] = test system: Klebsiella pneumoniae; assay: Antimicrobial activity against Klebsiella pneumoniae ATCC 700603 assessed as zone of inhibition at 100 ug/ml after 24 hrs by disc diffusion method; assay type: functional; details: ATCC 700603, 24 h, read-out: IZ
[14] = test system: Proteus mirabilis; assay: Antimicrobial activity against Proteus mirabilis after 24 hrs by agar disk diffusion method; assay type: functional
[15] = test system: Aspergillus niger; assay: Antifungal activity against Aspergillus niger; assay type: functional
[16] = test system: Staphylococcus aureus; assay: Antimicrobial activity against Staphylococcus aureus ATCC 25923 assessed as zone of inhibition at 100 ug/ml after 24 hrs by disc diffusion method; assay type: functional; details: ATCC 25923, 24 h, read-out: IZ
[17] = test system: Pseudomonas aeruginosa; assay: Antimicrobial activity against Pseudomonas aeruginosa after 24 hrs by agar disk diffusion method; assay type: functional
[18] = test system: Bacillus cereus; assay: Antimicrobial activity against Bacillus cereus; assay type: functional
[19] = test system: Pichia kudriavzevii; assay: Antifungal activity against Candida krusei
[20] = test system: Escherichia coli; assay: Antimicrobial activity against Escherichia coli after 24 hrs by agar disk diffusion method; assay type: functional
[21] = test system: Klebsiella pneumoniae; assay: Antimicrobial activity against Klebsiella pneumoniae after 24 hrs by agar disk diffusion method; assay type: functional
[22] = test system: Bacillus subtilis; assay: Potency index, ratio of ciprofloxacin MIC to test compound MIC for antimicrobial activity against Bacillus subtilis; assay type: functional
[23] = test system: Escherichia coli; assay: Potency index, ratio of ciprofloxacin MIC to test compound MIC for antimicrobial activity against Escherichia coli; assay type: functional
[24] = test system: Streptococcus pyogenes; assay: Antimicrobial activity against Streptococcus pyogenes; assay type: functional
[25] = test system: Candida albicans; assay: Antifungal activity against Candida albicans assessed as zone of inhibition at 250 ug/ml; assay type: functional; details: read-out: IZ
[26] = test system: Staphylococcus aureus; assay: Antimicrobial activity against Staphylococcus aureus assessed as zone of inhibition at 250 ug/ml; assay type: functional; details: read-out: IZ
[27] = test system: Escherichia coli; assay: Antimicrobial activity against Escherichia coli assessed as zone of inhibition at 250 ug/ml after 24 hrs by disk diffusion method; assay type: functional; details: read-out: IZ
[28] = test system: Staphylococcus aureus; assay: Antimicrobial activity against Staphylococcus aureus assessed as zone of inhibition at 30 ug/ml; assay type: functional; details: read-out: IZ
[29] = test system: Bacillus subtilis; assay: Antimicrobial activity against Bacillus subtilis assessed as zone of inhibition at 30 ug/ml; assay type: functional; details: read-out: IZ
[30] = test system: Candida albicans; assay: Antifungal activity against Candida albicans assessed as zone of inhibition at 30 ug/ml; assay type: functional; details: read-out: IZ
[31] = test system: Pseudomonas aeruginosa; assay: Antimicrobial activity against Pseudomonas aeruginosa assessed as zone of inhibition at 250 ug/ml; assay type: functional; details: read-out: IZ
[32] = test system: Pseudomonas aeruginosa; assay: Antimicrobial activity against Pseudomonas aeruginosa assessed as zone of inhibition at 30 ug/ml; assay type: functional; details: read-out: IZ
[33] = test system: Aspergillus niger; assay: Antifungal activity against Aspergillus niger assessed as zone of inhibition at 250 ug/ml; assay type: functional; details: read-out: IZ
[34] = test system: Escherichia coli; assay: Antimicrobial activity against Escherichia coli assessed as zone of inhibition at 250 ug/ml; assay type: functional; details: read-out: IZ
[35] = test system: Aspergillus fumigatus; assay: Antifungal activity against Aspergillus fumigatus assessed as zone of inhibition at 30 ug/ml; assay type: functional; details: read-out: IZ
[36] = test system: Bacillus cereus; assay: Antimicrobial activity against Bacillus cereus assessed as zone of inhibition at 250 ug/ml; assay type: functional; details: read-out: IZ
[37] = test system: Escherichia coli; assay: Antimicrobial activity against Escherichia coli assessed as zone of inhibition at 30 ug/ml; assay type: functional; details: read-out: IZ

MIC [1]: 12.5 to 400 µg/mL (≈ 27.9 to 892 µM)
MIC [2]: 12.5 to 400 µg/mL (≈ 27.9 to 892 µM)
MIC [3]: 12.5 to 400 µg/mL (≈ 27.9 to 892 µM)
MIC [4]: 12.5 to 400 µg/mL (≈ 27.9 to 892 µM)
MIC [5]: 12.5 to 400 µg/mL (≈ 27.9 to 892 µM)
MIC [6]: 12.5 to 400 µg/mL (≈ 27.9 to 892 µM)
MIC [7]: 12.5 to 400 µg/mL (≈ 27.9 to 892 µM)
MIC [8]: 12.5 to 400 µg/mL (≈ 27.9 to 892 µM)
MIC [9]: 12.5 to 400 µg/mL (≈ 27.9 to 892 µM)
MIC [10]: 12.5 to 400 µg/mL (≈ 27.9 to 892 µM)
MIC [11]: 12.5 to 400 µg/mL (≈ 27.9 to 892 µM)
MIC [12]: 12.5 to 400 µg/mL (≈ 27.9 to 892 µM)
Compound: Cn1nnnc1SCC(=O)Nc1ccc(-c2nc3cc(Cl)c(Cl)cc3n2C)cc1

Compound: CC1(C)S[C@@H]2[C@H](NC(=O)[C@H](N)c3ccccc3)C(=O)N2[C@H]1C(=O)O [AMPICILLIN]
zone of inhibition at 100 µg/mL [13]: 15 mm
MIC [14]: 6.25 µg/mL (≈ 17.9 µM)
MIC [2]: 2 to 64 µg/mL (≈ 5.72 to 183 µM)
MIC [4]: 2 to 64 µg/mL (≈ 5.72 to 183 µM)
MIC [15]: 100 to 250 µg/mL (≈ 286 to 715 µM)
zone of inhibition at 100 µg/mL [16]: 16.5 mm
MIC [5]: 2 to 250 µg/mL (≈ 5.72 to 715 µM)
MIC [17]: 6.25 µg/mL (≈ 17.9 µM)
MIC [18]: 6.25 µg/mL (≈ 17.9 µM)
MIC [19]: 2 to 64 µg/mL (≈ 5.72 to 183 µM)
MIC [7]: 2 to 250 µg/mL (≈ 5.72 to 715 µM)
MIC [9]: 2 to 250 µg/mL (≈ 5.72 to 715 µM)
MIC [20]: 6.25 µg/mL (≈ 17.9 µM)
MIC [10]: 2 to 250 µg/mL (≈ 5.72 to 715 µM)
MIC [21]: 6.25 µg/mL (≈ 17.9 µM)
MIC [11]: 2 to 64 µg/mL (≈ 5.72 to 183 µM)

MIC [4]: 8.41 µg/mL (≈ 16.8 µM)
MIC [7]: 8.58 µg/mL (≈ 17.2 µM)
Compound: COc1cccc(OC)c1/C=C1\SC(=O)N(Cc2ccc(-c3ccccc3-c3nnn[nH]3)cc2)C1=O
Ratio [22]: >2.91
Ratio [23]: >2.91

Compound: O=C(O)c1cn(C2CC2)c2cc(N3CCN(C(=O)Cn4nnnc4S)CC3)c(F)cc2c1=O
MIC [3]: 2 to 128 µg/mL (≈ 4.22 to 270 µM)
MIC [5]: 2 to 128 µg/mL (≈ 4.22 to 270 µM)
MIC [12]: 2 to 128 µg/mL (≈ 4.22 to 270 µM)
MIC [24]: 2 to 128 µg/mL (≈ 4.22 to 270 µM)

Compound: CC1(C)S[C@@H]2[C@H](NC(=O)[C@H](N)c3ccc(O)cc3)C(=O)N2[C@H]1C(=O)O [AMOXICILLIN]
zone of inhibition at 250 µg/mL [25]: 21 to 27 mm
zone of inhibition at 250 µg/mL [26]: 21 to 27 mm
zone of inhibition at 250 µg/mL [27]: 21 to 27 mm
zone of inhibition at 30 µg/mL [28]: 25 to 28 mm
zone of inhibition at 30 µg/mL [29]: 25 to 28 mm
zone of inhibition at 30 µg/mL [30]: 25 to 28 mm
zone of inhibition at 250 µg/mL [31]: 21 to 27 mm
zone of inhibition at 30 µg/mL [32]: 25 to 28 mm
zone of inhibition at 250 µg/mL [33]: 21 to 27 mm
zone of inhibition at 250 µg/mL [34]: 21 to 27 mm
zone of inhibition at 30 µg/mL [35]: 25 to 28 mm
zone of inhibition at 250 µg/mL [36]: 21 to 27 mm
zone of inhibition at 30 µg/mL [37]: 25 to 28 mm
